Data on 17 compounds can be found in PubChem BioAssay AID276 (DTP/NCI, 2004).

The assay relates to B6C3F1 mice, Lewis lung carcinoma iv, survival T/C. The experiment in a line: NCI In Vivo Anticancer Drug Screen. Data for tumor model Lewis Lung Carcinoma (intravenous) in B6C3F1 mice. Particulars: endpoint: median survival time, schedule: Q01DX009 (ip), higher = longer survival. The gist of the method:
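Mice carrying transplanted tumors received test compound; survival in the treated group was divided by that of the vehicle-treated control group to give the T/C value.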

Setting [1] is: dose: 3.12 mg/kg/injection, vehicle: water.
Where [2] appears, read: dose: 6.25 mg/kg/injection, vehicle: water.
The mark [3] stands for this setting: dose: 12.5 mg/kg/injection, vehicle: water.
The mark [4] stands for this setting: dose: 25.0 mg/kg/injection, vehicle: Klucel (hydroxypropylcellulose) (HPC).
[5] abbreviates: dose: 50.0 mg/kg/injection, vehicle: Klucel (hydroxypropylcellulose) (HPC).
[6] abbreviates: dose: 100.0 mg/kg/injection, vehicle: Klucel (hydroxypropylcellulose) (HPC).
Setting [7] is: dose: 12.5 mg/kg/injection, vehicle: saline with Tween-80.
Setting [8] is: dose: 25.0 mg/kg/injection, vehicle: saline with Tween-80.
[9] abbreviates: dose: 50.0 mg/kg/injection, vehicle: saline with Tween-80.
Setting [10] is: dose: 100.0 mg/kg/injection, vehicle: saline with Tween-80.
[11] abbreviates: dose: 200.0 mg/kg/injection, vehicle: saline with Tween-80.
[12] abbreviates: dose: 400.0 mg/kg/injection, vehicle: saline with Tween-80.
[13] abbreviates: dose: 6.25 mg/kg/injection, vehicle: suspension in saline.
[14] abbreviates: dose: 12.5 mg/kg/injection, vehicle: suspension in saline.
Where [15] appears, read: dose: 25.0 mg/kg/injection, vehicle: suspension in saline.
Setting [16] is: dose: 6.25 mg/kg/injection, vehicle: saline with Tween-80.

Values joined by “and” are separate entries in the source; they are usually repeats but may differ in a detail not shown here. Equal entries are not always repeated. Inconclusive results and toxic doses are left out.

In the case of `COc1cccc2c1C(=O)c1c(O)c3c(c(O)c1C2=O)C[C@@](O)(/C(C)=N\O)C[C@@H]3OC1CC(N)C(O)C(C)O1` (some centres undefined), the T/C under setting [1] is 90 % of control, the T/C under setting [2] was 86 % of control and the T/C under setting [3] was 90 % of control.
Take `Cc1c(-c2ccc(C3CCCCC3)cc2)nc2ccc(F)cc2c1C(=O)O`: the T/C under setting [4] was 96 % of control; the T/C under setting [5] is 110 % of control; the T/C under setting [6] is 118 % of control; the T/C (dose: 200.0 mg/kg/injection, vehicle: Klucel (hydroxypropylcellulose) (HPC)) was 112 % of control.
As to `OC1(CSc2ccccc2)CCCCC1`, the T/C was 95 % of control and 119 % of control under setting [7]; 107 % of control under setting [8]; 94 % of control and 114 % of control under setting [9]; 103 % of control and 106 % of control under setting [10]; 100 % of control and 105 % of control under setting [11]; 108 % of control and 110 % of control under setting [12].
Turning to `N#CCCSC(=S)C1CCCC1=N` (centres undefined), the T/C is 99 % of control under setting [7]; 103 % of control under setting [8]; 98 % of control under setting [9]; 103 % of control under setting [10]; 105 % of control under setting [11]; 106 % of control under setting [12].
Consider `O=C(O)[C@H](Cc1ccccc1)N1C(=O)c2ccccc2C1=O`, for which the T/C was 102 % of control (dose: 3.12 mg/kg/injection, vehicle: DMSO); 105 % of control (dose: 6.25 mg/kg/injection, vehicle: DMSO); 105 % of control (dose: 12.5 mg/kg/injection, vehicle: DMSO); 100 % of control (dose: 25.0 mg/kg/injection, vehicle: DMSO); 98 % of control (dose: 50.0 mg/kg/injection, vehicle: DMSO).
On to `OCCN1CCN(CC/C=C2/c3ccccc3Sc3ccc(C(F)(F)F)cc32)CC1`, for which the T/C reads like this: (dose: 0.19 mg/kg/injection, vehicle: saline) 114 % of control; (dose: 0.39 mg/kg/injection, vehicle: saline) 101 % of control; (dose: 0.78 mg/kg/injection, vehicle: saline) 102 % of control; (dose: 1.56 mg/kg/injection, vehicle: saline) 98 % of control; (dose: 3.12 mg/kg/injection, vehicle: saline) 98 % of control; (dose: 6.25 mg/kg/injection, vehicle: saline) 108 % of control.
As for `CCCCCCCCCCCCCCCCCCOCC(COP(=O)([O-])OCC[N+](C)(C)C)OC` (centres undefined), the T/C under setting [13] was 96 % of control, the T/C under setting [14] was 99 % of control and the T/C under setting [15] is 100 % of control.
As for `C/C=C(\C)c1cc(=O)c2c(C)cc3c(c2o1)C(=O)c1c(O)c(C2CC(C)(N(C)C)C(O)C(C)O2)cc(C2CC(N(C)C)C(O)C(C)O2)c1C3=O` (centres undefined), the T/C is, setting by setting: (dose: 31.25 micrograms/kg/injection, vehicle: saline) 98 % of control; (dose: 62.5 micrograms/kg/injection, vehicle: saline) 101 % of control; (dose: 125.0 micrograms/kg/injection, vehicle: saline) 101 % of control; (dose: 250.0 micrograms/kg/injection, vehicle: saline) 98 % of control.
Turning to `Nc1cc(Cl)c2[nH]cnc2n1`, the T/C under setting [2] was 94 % of control; the T/C under setting [3] was 98 % of control; the T/C (dose: 25.0 mg/kg/injection, vehicle: water) is 100 % of control; the T/C (dose: 50.0 mg/kg/injection, vehicle: water) is 107 % of control; the T/C (dose: 100.0 mg/kg/injection, vehicle: water) is 109 % of control; the T/C (dose: 200.0 mg/kg/injection, vehicle: water) is 100 % of control.
As to `CCCCCCCCCCCCCCCCP(=O)(OCCOCCCCCC)OCCOCCCCCC`, the T/C by setting is: under setting [13], 100 % of control; under setting [14], 100 % of control; under setting [15], 107 % of control; (dose: 50.0 mg/kg/injection, vehicle: suspension in saline) 102 % of control.
As for `O=NN(CCCl)C(=O)NCCO`, the T/C (dose: 0.78 mg/kg/injection, vehicle: water) is 107 % of control; the T/C under setting [1] is 184 % of control and 213 % of control and 215 % of control; the T/C under setting [2] was 178 % of control and 312 % of control; the T/C under setting [3] was 90 % of control.
For `COc1ccc2[nH]c3c(c2c1)CCNC3CC(C)CCC=C(C)C` (centres undefined), the T/C is, setting by setting: (dose: 6.25 mg/kg/injection, vehicle: Klucel (hydroxypropylcellulose) (HPC)) 98 % of control; (dose: 12.5 mg/kg/injection, vehicle: Klucel (hydroxypropylcellulose) (HPC)) 98 % of control; under setting [4], 92 % of control; under setting [5], 103 % of control; under setting [6], 105 % of control.
Regarding `C=C1N(C)c2ccccc2C1(C)C`, the T/C was 107 % of control (dose: 3.12 mg/kg/injection, vehicle: saline with Tween-80); 102 % of control under setting [16]; 109 % of control under setting [7]; 98 % of control under setting [8]; 110 % of control under setting [9].
For the compound `CNC(=O)n1c(N)nc(-c2ccccc2)c1-c1ccccc1`, the T/C was 102 % of control under setting [16], 103 % of control under setting [7], 103 % of control under setting [8] and 102 % of control under setting [9].
Turning to `CC(C)N1CC(COc2cccc3ccccc23)OP1(=O)N(CCCl)CCCl` (centres undefined), the T/C is 98 % of control (dose: 1.56 mg/kg/injection, vehicle: distilled water + Tween-80); 96 % of control (dose: 3.13 mg/kg/injection, vehicle: distilled water + Tween-80); 101 % of control (dose: 6.25 mg/kg/injection, vehicle: distilled water + Tween-80); 102 % of control (dose: 12.5 mg/kg/injection, vehicle: distilled water + Tween-80); 102 % of control (dose: 25.0 mg/kg/injection, vehicle: distilled water + Tween-80); 95 % of control (dose: 50.0 mg/kg/injection, vehicle: distilled water + Tween-80). For the same compound, the T/C reads like this: (dose: 100.0 mg/kg/injection, vehicle: distilled water + Tween-80) 106 % of control; (dose: 200.0 mg/kg/injection, vehicle: distilled water + Tween-80) 90 % of control; (dose: 400.0 mg/kg/injection, vehicle: distilled water + Tween-80) 90 % of control.
On to `Cc1c(N)nc([C@H](CC(N)=O)NC[C@H](N)C(N)=O)nc1C(=O)N[C@H](C(=O)N[C@H](C)[C@@H](O)CC(=O)N[C@H](C(=O)NC(O[C@@H]1O[C@@H](C)[C@@H](N)[C@@H](O)[C@H]1O)C(O)c1nc(-c2nc(C(=O)NCCCCN)cs2)cs1)[C@@H](C)O)[C@@H](O[C@@H]1O[C@@H](CO)[C@@H](O)[C@H](O)[C@@H]1O[C@H]1O[C@H](CO)[C@@H](O)[C@H](OC(N)=O)[C@@H]1O)c1c[nH]cn1` (some centres undefined), for which the T/C was 123 % of control (dose: 2.0 mg/kg/injection, vehicle: saline) and 176 % of control (dose: 8.0 mg/kg/injection, vehicle: saline).
Regarding `CC(=O)O[C@@H]1CO[C@H]2O[C@H]3[C@@H](C(C=O)=C[C@H](O)[C@@H]4C5=C(C(C)C)CC[C@]5(C)CC[C@@]34C)[C@@]2(O)C1=O`, the T/C (dose: 0.75 mg/kg/injection, vehicle: Klucel (hydroxypropylcellulose) (HPC)) was 103 % of control; the T/C (dose: 1.5 mg/kg/injection, vehicle: Klucel (hydroxypropylcellulose) (HPC)) is 98 % of control; the T/C (dose: 3.0 mg/kg/injection, vehicle: Klucel (hydroxypropylcellulose) (HPC)) was 100 % of control.
